These results are taken from patent US9573899B2, “USP7 inhibitor compounds and methods of use” (Genentech, Inc., priority 2015, dated 2017).

What is called IC50 is the point on the concentration scale where inhibition reaches its midpoint.

Molecules are shown by their SMILES. “Also recorded” adds a separate entry of the source.

For assay [1], the system named is MCF-7 p53 WT breast cancer cells. In words: Incucyte cell proliferation and caspase activity, MCF-7 (FIG. 10, 17). The format is cell-based. To be noted: MCF-7 p53 WT compared to MDA-MB157 p53 null cells; compared to 89. The protocol:
(§1) 2,500-5,000 cells were seeded in 1-well of a 96-well plate (Corning; 3904). The following day, the media was changed from normal (10%) to low serum (0.5%) containing vehicle (DMSO) or compounds. 16-24 h later FBS was added to each well to bring serum levels back to normal (10%). Cells were then allowed to grow for 2 days. All treatments were done in triplicate. The day after cells were seeded, the media was changed to low serum media containing 2 μM CellEvent Caspase 3/7 reagent (Life Technologies; C10423) and compounds. The plates were placed in an IncuCyte (Essen Bioscience, Inc.) live cell imager and scanning was started 15-20 mins after. IncuCyte™ ZOOM facilitates live-cell monitoring via customized imaging protocols. Images were taken every 2 h for at least 3 days, using a 10× objective. Phase contrast was used to measure cell confluency/density while green fluorescence was used to measure caspase activity. The images were analyzed using IncuCyte software (Basic Analysis parameters) and a ratio of caspase activity to cell density was determined.

For assay [2], the target named is T1, endogenous USP7 (Homo sapiens, UniProt Q93009).
T1 construct: endogenous in cells; host or cells: 293T cell lysate
In words: Activity-based profiling of deubiquitinases with HA-tagged ubiquitin probes, western blot (FIG. 5, 6). To be noted: 15 μM, 293T cell lysate. Format: biochemical. Background: In western blotting, separated proteins are transferred to a membrane and probed.
Procedure: 293T cells at 80% confluency are harvested by rinsing the plate one time with 10 ml PBS followed by scraping. Cells are cleared by spinning them for 3 min at 350 g at 4° C. and the pellet is flash-frozen in liquid nitrogen and stored at −80° C. until lysis. Frozen cells are lysed by quickly re-thawing them in Buffer A (50 mM Tris-HCl pH 7.5, 250 mM Sucrose, 5 mM TCEP, 2 mM ATP, 50 μM phenylmethylsulfonyl fluoride (PMSF), 120 mM NaCl, 5 mM MgCl2) and the lysate is cleared by centrifugation by spinning at 18,000 g at 4° C. […] Subsequently, the 4 samples are all incubated with 6.6 μg/ml of either one of the following activity-based DUB probes (the same probe for each of the 4 samples): HA-tagged ubiquitin vinyl sulfone (Boston Biochem, Cambridge, Mass.), HA-tagged ubiquitin propargylamine (UbiQ Bio BV, Amsterdam, The Netherlands) or HA-tagged ubiquitin vinylmethyl ester (UbiQ Bio BV, Amsterdam, The Netherlands), 1200 rpm, at 25° C., for 1 hr. The reaction is terminated by adding a 20% SDS solution to a final concentration of 0.4% for at least 30 min at room temperature, rotating. Subsequently, the reacted lysate is diluted 10× with Buffer B (50 mM Tris-HCl pH 7.5, 150 mM NaCl, 5 mM EDTA, protease inhibitor cocktail EDTA-free (Roche, Mannheim, Germany), 50 μM PMSF, 0.5% NP-40). 60-100 μl slurry depending on input protein amount of pre-equilibrated anti-HA affinity matrix (Roche, Mannheim, Germany) are added and HA-tagged proteins are immunopurified with this matrix by rotating the samples over night at 4° C. The next day the beads are washed with the following buffers in this order: three times ice-cold Buffer B, one time ice-cold Buffer B NP-40 free, and three times ice-cold 15 mM TEAB pH 8.5. Spins between washes are performed at 2000 g and 4° C. […]

Assay [3] concerns p21 in KMS-21BM and KMS-28PE multiple myeloma cells. In words: Western blot in multiple myeloma cells (FIG. 13B). The format is cell-based. To be noted: compared to 89. The protocol:
(§2) In 24-well plates, 0.10-0.15×10^6 (adherent) or 0.5×10^6 (suspension) cells were treated with 15 μM or 2.5 μM compounds, respectively, for 24 h in low serum prior to lysis for Western Blot analysis.

The test system of assay [4] is HCT116 cells (wild type and USP7 null). The experiment in a line: CellTitre-Glo cell viability, HCT116 wild type and USP7 null (FIG. 4). The following applies: HCT116 wild type versus USP7 null. The format is cell-based, Human. The protocol: 2,500-5,000 cells were seeded in 1-well of a 96-well plate (Corning; 3904). The following day, the media was changed from normal (10%) to low serum (0.5%) containing vehicle (DMSO) or compounds. 16-24 h later FBS was added to each well to bring serum levels back to normal (10%). Cells were then allowed to grow for 2 days. All treatments were done in triplicate.
(§3) Seventy two hours after compounds were added, CellTitre Glo (CTG) reagent was added following the protocol provided by the manufacturer (Promega). In the experiment to test compound dependency on USP7, 3× more USP7 null cells were plated per well (7,500 vs. 2,500 for wild-type (WT) cells), given the slower proliferation of USP7 null cells. For the multiple myeloma experiment, cells seeded in low serum and treated with compounds immediately. Twenty four hours later, serum was added back to normal levels. CTG assay was done 24 h later i.e. 48 h after compounds were added instead of 72 hrs later for the adherent cells.

The subject of assay [5] is colon cancer cell lines RKO and RKO-E6, and cervical cancer cell lines Vibo and SiHA. In words: Incucyte cell proliferation in RKO, RKO-E6, Vibo and SiHA cells (FIG. 15). Format: cell-based. The protocol: as §1
Assay [6] deals with KMS-21BM and KMS-28PE multiple myeloma cells. In words: Cell Titer Glo viability of multiple myeloma cells (FIG. 13A). Format: cell-based. To be noted: compared to 89. As for the experimental part: as §3
Background: ATP-based viability assays read luminescence as a measure of living cells.

The target of assay [7] is T2, USP5 (Homo sapiens, UniProt P45974).
T2 sequence (P45974 1-858): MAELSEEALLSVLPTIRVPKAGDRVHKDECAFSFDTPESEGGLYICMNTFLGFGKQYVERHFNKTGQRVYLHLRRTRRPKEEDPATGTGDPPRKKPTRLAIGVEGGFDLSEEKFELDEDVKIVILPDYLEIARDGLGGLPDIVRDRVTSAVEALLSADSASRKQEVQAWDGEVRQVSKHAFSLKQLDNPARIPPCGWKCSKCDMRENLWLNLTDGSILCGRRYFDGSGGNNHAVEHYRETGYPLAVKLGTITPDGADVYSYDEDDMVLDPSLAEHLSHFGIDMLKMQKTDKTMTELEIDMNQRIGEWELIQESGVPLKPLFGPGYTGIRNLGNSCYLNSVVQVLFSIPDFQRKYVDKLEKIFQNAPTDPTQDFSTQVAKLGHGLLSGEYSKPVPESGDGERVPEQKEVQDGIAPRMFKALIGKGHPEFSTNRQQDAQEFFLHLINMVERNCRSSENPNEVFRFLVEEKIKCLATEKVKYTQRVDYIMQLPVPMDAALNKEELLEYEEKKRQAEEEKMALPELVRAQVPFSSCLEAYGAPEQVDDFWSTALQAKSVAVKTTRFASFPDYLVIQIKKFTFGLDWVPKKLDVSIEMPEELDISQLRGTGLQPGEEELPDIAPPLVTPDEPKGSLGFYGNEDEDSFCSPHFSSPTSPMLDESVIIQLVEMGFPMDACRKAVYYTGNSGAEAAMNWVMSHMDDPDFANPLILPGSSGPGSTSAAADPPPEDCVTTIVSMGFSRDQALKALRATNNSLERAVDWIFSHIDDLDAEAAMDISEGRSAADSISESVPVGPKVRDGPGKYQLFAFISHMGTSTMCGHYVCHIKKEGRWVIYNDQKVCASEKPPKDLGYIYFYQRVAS
The experiment in a line: Ub-Rho110 DUB assay, Table 2, USP5.

Assay [8] deals with U2Os p53 WT osteosarcoma cells. In words: Incucyte cell proliferation and caspase activity, U2Os (FIG. 11, 16). Format: cell-based. The following applies: U2Os p53 WT compared to SaOs p53 null cells; compared to 89. The protocol:
as §1

The subject of assay [9] is p53 and p21 in p53 wild-type breast cancer and osteosarcoma cells. The experiment in a line: Western blot of p53 and p21 in breast cancer, osteosarcoma and normal cells (FIG. 12A). The format is cell-based. The following applies: 15 μM, <24 h, low serum; p53 wild-type breast cancer and osteosarcoma cells but not normal cells. The protocol:
as §2

In assay [10] the test system is p53, p21, MDM2 and E6AP in RKO, RKO-E6, Vibo and SiHA cell lines. The experiment in a line: Western blot in RKO, RKO-E6, Vibo and SiHA cells (FIG. 14A). The format is cell-based. As for the experimental part: as §2
Assay [11] addresses T3, USP7 (Homo sapiens, UniProt Q93009).
T3 construct: USP7, full-length, native C-Terminus, 0.2 nM
The experiment in a line: Ub-Rho110 DUB assay, Table 2, USP7. Format: biochemical.
Procedure: (§4) Biochemical USP7 assays using Ubiquitin-Rho110 as a substrate: The final assay conditions were as follows: The Reaction Buffer consisted of: 50 mM Tris (pH 7.5), 0.01% (v/v) Triton X-100, 2.5 mM Dithiothreitol, 0.1% (w/v) bovine gamma globulin (Sigma cat #G5009-25G); USP7, full-length, native C-Terminus, 0.2 nM; the substrate, Ubiquitin-Rho110 (Boston Biochem cat #U-555), 1 uM. Reactions were carried out for 1 hour at room temperature, in black 20 μL volume polystyrene ProxiPlate 384 F Plus® (PerkinElmer cat #6008260).
(§5) Test compounds, including a control USP7 inhibitor (Ub-aldehyde, Boston Biochem cat #U-201) were serially diluted in DMSO, in 384 well clear V-bottom polypropylene plates (Greiner cat #781280). Compounds in DMSO were diluted 10-fold into Reaction Buffer, to achieve 3-fold the final desired concentration. The substrate, Ubiquitin-Rho110 (Boston Biochem cat #U-555), was prepared at 3 μM (3-fold the final concentration) and 5 ul was dispensed into the reaction plate. 5 ul of the compounds (diluted in Reaction Buffer at 3-fold the final concentration) were transferred to the reaction plate. 5 ul of 0.6 nM USP7 (diluted in Reaction Buffer at 3-fold the final concentration) was transferred to the reaction plate to initiate the reaction. After 1 hour incubation at room temperature the reaction was quenched by the addition of 5 ul of 400 mM acetic acid. The enzymatic product was measured by quantifying the fluorescence signal of cleaved Rhodamine-110 using excitation at 485 nm and emission at 535 nm. When pre-incubation of USP7 with compounds was required, the order of addition of reagents was modified to pre-mix the compounds with USP7 (with a 1 hour incubation period), prior to the addition of the substrate and the initiation of the reaction period. Percentage inhibition values were calculated relative to a no enzyme control and a uninhibited enzyme control. Curve fitting and IC50 calculations were carried out using Genedata Screener software.

Assay [12] has as its target USP7 catalytic domain (Homo sapiens, UniProt Q93009). In words: Ub-Rho110 DUB assay, Table 2, USP7 catalytic domain. The following applies: read-out: Ub-Rho110 IC50, USP7 cat. The format is biochemical.
Procedure: as §4, §5

T1 sequence (Q93009 whole entry): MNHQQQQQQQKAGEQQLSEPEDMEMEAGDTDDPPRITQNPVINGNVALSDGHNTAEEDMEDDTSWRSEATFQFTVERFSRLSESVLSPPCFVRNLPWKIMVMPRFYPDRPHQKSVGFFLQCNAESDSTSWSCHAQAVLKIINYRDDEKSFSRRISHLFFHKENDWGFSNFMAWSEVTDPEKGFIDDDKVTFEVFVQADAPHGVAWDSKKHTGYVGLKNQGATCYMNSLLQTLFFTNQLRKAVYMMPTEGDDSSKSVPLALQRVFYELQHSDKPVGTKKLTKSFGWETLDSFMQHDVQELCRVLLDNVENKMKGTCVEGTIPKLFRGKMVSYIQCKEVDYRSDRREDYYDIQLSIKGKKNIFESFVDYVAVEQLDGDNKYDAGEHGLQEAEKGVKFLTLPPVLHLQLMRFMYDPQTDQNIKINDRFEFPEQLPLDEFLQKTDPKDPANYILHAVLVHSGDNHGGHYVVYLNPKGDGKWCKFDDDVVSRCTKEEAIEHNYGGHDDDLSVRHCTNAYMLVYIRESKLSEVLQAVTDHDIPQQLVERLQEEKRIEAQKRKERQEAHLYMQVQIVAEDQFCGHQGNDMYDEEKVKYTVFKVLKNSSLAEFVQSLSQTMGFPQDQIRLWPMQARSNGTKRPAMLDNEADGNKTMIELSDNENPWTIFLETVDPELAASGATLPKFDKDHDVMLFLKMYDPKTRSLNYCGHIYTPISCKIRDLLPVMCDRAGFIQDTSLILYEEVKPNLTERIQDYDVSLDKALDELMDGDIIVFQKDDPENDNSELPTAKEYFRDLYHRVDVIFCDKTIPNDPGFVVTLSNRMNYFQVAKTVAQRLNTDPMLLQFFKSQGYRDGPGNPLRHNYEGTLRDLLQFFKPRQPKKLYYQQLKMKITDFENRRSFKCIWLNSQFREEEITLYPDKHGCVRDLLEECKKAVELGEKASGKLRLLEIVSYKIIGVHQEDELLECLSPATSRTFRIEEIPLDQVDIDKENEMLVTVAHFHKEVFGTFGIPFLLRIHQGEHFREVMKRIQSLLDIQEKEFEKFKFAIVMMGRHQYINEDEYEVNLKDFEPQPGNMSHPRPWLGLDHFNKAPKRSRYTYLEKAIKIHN
T3 sequence (Q93009 whole entry): as above
USP7 catalytic domain, sequence (Q93009 214-521 limits assumed): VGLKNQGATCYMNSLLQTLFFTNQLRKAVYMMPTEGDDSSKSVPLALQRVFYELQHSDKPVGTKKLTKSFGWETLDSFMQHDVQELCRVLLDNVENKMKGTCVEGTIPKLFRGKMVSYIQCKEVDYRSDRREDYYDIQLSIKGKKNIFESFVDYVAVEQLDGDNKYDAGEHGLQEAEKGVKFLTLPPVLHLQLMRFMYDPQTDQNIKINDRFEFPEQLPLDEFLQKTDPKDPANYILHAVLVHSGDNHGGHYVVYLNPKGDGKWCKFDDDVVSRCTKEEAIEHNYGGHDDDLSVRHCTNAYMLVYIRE

With `CCc1c(-c2ccc3[nH]ncc3c2)cnc(N)c1-c1ccc(O)cc1` [Compound 88, 4-[2-amino-4-ethyl-5-(1H-indazol-5-yl)-3-pyridyl]phenol], the “cell viability (Incucyte proliferation and caspase activity)” value in assay [1] and in [8] was “decreases cell viability” in each case. Besides, in [2] (evaluated by western blotting), the “selective antagonism of endogenous USP7 over other DUBs” value is “selective DUB inhibition; also recorded: selectively antagonizes endogenous USP7 over other DUBs”. Further, in assay [2] (western blot), the “HA-probe-conjugated band corresponding to USP7” value is “decreased”. In addition, the “p21 levels (western blot)” value in assay [3] was “increases p21 levels”. Further, the cell viability result in [4] is listed as “USP7-dependent decrease in viability”. The “cell viability (Incucyte cell proliferation)” value in assay [5] is “decreases cell viability”. In [6], the “cell viability (Cell Titer Glo signal)” value is listed as “decrease in cell viability”. The concentration for half-maximal inhibition (IC50) came to 18.6 µM in [7], 0.98 µM in assay [11] and 0.43 µM in assay [12]. The “p53 and p21 levels (western blot)” value in assay [9] is “increases p53 and p21 levels”. Moreover, the “effect on p53, p21, MDM2 and E6AP (western blot)” value in assay [10] is “stabilize p53, p21, and destabilize MDM2 and E6AP”. The “selectivity of antagonism of USP7 catalytic activity over the DUBs evaluated” value in assay [11] (conclusion from Table 2 (USP7, USP7 cat, USP47, USP5)) is recorded as “selective antagonists of USP7 catalytic activity”.
